Series [1] can be described thus: Salt form screen: physicochemical properties (solubility, pH, hygroscopicity). The following applies: for pH: Table 1, pH of the solution.
Series [2] in a line: Compound pharmacokinetics (systemic exposure) in rats. In kind it is in vivo, rat. The following applies: for AUC(0-t): read-out: AUC0-24. Set-up: AUC/Dose: unit not given here.
Series [3] deals with emectic receptors in the stomach. The series is described as follows: Emectic receptor interaction / diarrhea in mammals. The series is classed as in vivo. The following applies: in words.
A short description of series [4]: Solubility comparison of free base and maleate salt. The following applies: for pH of solution in 2% Tween 80 in water: solvent 2% Tween 80 in water; for pH of solution in Water: solvent water.
The nature of series [5]: Physicochemical properties of maleate salt pilot batches. The following applies: for Aqueous Solubility: footnote: s the free base.
Series [6] is described as follows: Water solubility and BCS classification of the free base. The series is classed as physicochemical. From the text:
Pat. […] The compound is classified, based on the Biopharmaceutical Classification System, as a BCS Class IV compound (low water solubility and low permeability). […] The water solubility increases with decreasing pH as the compound becomes ionized. This compound is […] rate limiting. There is a need for a form of this compound with improved physicochemical properties.

A further series is described as follows: physchem. The following applies: aqueous with cosolvent or surfactant or cyclodextrin.
Series [7] in a line: Solid state stability in closed and open containers at 40° C. and 75% RH. In kind it is physicochemical. The following applies: closed and open containers at 40° C. and 75% RH. From the text:
Both Form I and Form II remained stable for 6 months under these conditions. […] Samples in the closed containers remained dry. HPLC purity analysis indicated no significant increase in degradation products in both open and closed conditions for up to 6 months.

The nature of series [8]: Dynamic vapor sorption (DVS) hygroscopicity. The series is classed as physicochemical. The following applies: DVS isotherm, FIG. 2; especially at 10% RH and below. From the text:
The relative stability and hygroscopicity of the two crystalline forms of the maleate salt was studied in detail by dynamic vapor sorption (DVS).

The conditions of series [9]: 20-25° C., relative humidity 50-60%, 24 hours, XRD.
Experimental: FIG. 7 illustrates an XRD scan of crystalline (E)-N-{4-[3-chloro-4-(2-pyridinylmethoxy)anilino]-3-cyano-7-ethoxy-6-quinolinyl}-4-(dimethylamino)-2-butenamide maleate in Form II, before and after exposure to relative humidity of 50-60% at an ambient temperature of 20-25° C. for 24 hours.
FIG. 8 is an XRD scan of crystalline (E)-N-{4-[3-chloro-4-(2-pyridinylmethoxy)anilino]-3-cyano-7-ethoxy-6-quinolinyl}-4-(dimethylamino)-2-butenamide maleate in Form I before (lower scan), and after (upper scan) exposure to relative humidity of 50-60% at room temperature of 20-25° C. for 24 hours.
Where [10] appears, read: plasma, oral, rat Female, 5 mg/kg, Day 28, mean (SE), N 3.
[11] abbreviates: plasma, oral, rat Male, 5 mg/kg, Day 28, mean (SE), N 3.
The mark [12] stands for this setting: plasma, rat Female, 15 mg/kg, Day 28, mean (SE), N 3.
[13] abbreviates: plasma, rat Male, 15 mg/kg, Day 28, mean (SE), N 3.
The mark [14] stands for this setting: pilot batch Run 1, batch size 0.5 g.
Where [15] appears, read: pilot batch Run 2, batch size 6.6 g.
Setting [16] is: pilot batch Run 3, batch size 4 g.
Setting [17] is: plasma, oral, rat Male, 100 mg/kg, Day 10, mean (SE), N 3.
[18] abbreviates: plasma, rat Female, 30 mg/kg, Day 10, mean (SE), N 3.
Where [19] appears, read: plasma, rat Male, 10 mg/kg, Day 10, mean (SE), N 3.
The mark [20] stands for this setting: plasma, rat Male, 30 mg/kg, Day 10, mean (SE), N 3.

≈ marks a conversion by molar mass, not a printed value. Read-outs that look alike come from different tables or passages of the source. A value given as a limit tells only on which side of the number the result lay.

As to Fumarate, the pH in series [1] (salt screen) was 3.53.

For the molecule `CCOc1cc2ncc(C#N)c(Nc3ccc(OCc4ccccn4)c(Cl)c3)c2cc1NC(=O)/C=C/CN(C)C.O=C(O)/C=C\C(=O)O` [Maleate salt], the Cmax in series [2] (setting [10]) came to 1380 ng/mL; in series [2] (setting [11]) it was 1200 ng/mL; in [2] (setting [12]), 3560 ng/mL; in series [2] (plasma, rat Female, 45 mg/kg, Day 28, mean (SE), N 3), 4560 ng/mL; in series [2] (setting [13]), 3420 ng/mL; in series [2] (plasma, rat Male, 45 mg/kg, Day 28, mean (SE), N 3), 4620 ng/mL. The AUC(0-t) in series [2] (setting [10]) worked out at 9530 ng·h/mL; in series [2] (plasma, oral, rat Female, 45 mg/kg, Day 28, mean (SE), N 3) it was 75600 ng·h/mL; in series [2] (setting [11]), 8220 ng·h/mL; in series [2] (plasma, oral, rat Male, 45 mg/kg, Day 28, mean (SE), N 3), 65100 ng·h/mL; in series [2] (setting [12]), 34200 ng·h/mL; in series [2] (setting [13]) it was 30200 ng·h/mL. For the same molecule, the AUC/Dose in series [2] (rat Female, 5 mg/kg, Day 28, mean (SE), N 3) is on record as 1907 (169); in series [2] (rat Female, 15 mg/kg, Day 28, mean (SE), N 3) it was 2278 (177); in [2] (rat Female, 45 mg/kg, Day 28, mean (SE), N 3), 1681 (141); in [2] (rat Male, 5 mg/kg, Day 28, mean (SE), N 3) it was 1645 (126); in [2] (rat Male, 15 mg/kg, Day 28, mean (SE), N 3) it was 2014 (178); in [2] (rat Male, 45 mg/kg, Day 28, mean (SE), N 3), 1446 (106). For the same molecule, the “increase in AUC as compared to the free base” value in [2] (rat, dose range of 5 to 45 mg/kg) was “two-fold”. Moreover, the “emectic receptor interaction / diarrhea” value in series [3] is reported as “minimizes emectic receptor interactions in mammals”. Moreover, the solubility in [4] (2% Tween 80 in water, aqueous with cosolvent or surfactant or cyclodextrin) came to 1120 µg/mL; in [4] (water, pH 5, water) it was 430 µg/mL; in [1], 0.37 mg/g. Further, the “pH of solution in 2% Tween 80 in water” value in series [4] is reported as “(pH 5.06)”. For the same molecule, in series [4], the “pH of solution in Water” value is “(pH 5.00)”. Besides, the “Solution pH” value in series [5] (setting [14]) amounted to 5.11; in series [5] (setting [15]), 5.10; in series [5] (setting [16]) it was 5.15. In addition, the “Aqueous Solubility” value stood at 0.37 mg/g in series [5] (setting [14]), 0.50 mg/g in [5] (setting [15]) and 0.44 mg/g in series [5] (setting [16]). In addition, the pH in series [1] (salt screen) worked out at 5.11. The hygroscopicity entry in series [1] (salt screen, in words) is “less hygroscopic”.

Take `CCOc1cc2ncc(C#N)c(Nc3ccc(OCc4ccccn4)c(Cl)c3)c2cc1NC(=O)/C=C/CN(C)C` [free base]: the “Biopharmaceutical Classification System class” value in series [6] (low water solubility and low permeability) is listed as “BCS Class IV”. Besides, the solubility is around 1 µg/mL (≈ 1.8 µM) in series [6] (water, at about pH 7) and 50 µg/mL (≈ 89.8 µM) in “physchem”. Further, the Cmax in [2] (setting [17]) was found to be 3820 ng/mL; in [2] (setting [18]) it was 2440 ng/mL; in [2] (setting [19]), 814 ng/mL; in [2] (plasma, rat Male, 20 mg/kg, Day 1, mean (SE), N 4) it was 1010 ng/mL; in [2] (setting [20]), 1650 ng/mL. In addition, the AUC(0-t) in series [2] (setting [17]) turned out to be 58300 ng·h/mL; in [2] (setting [18]), 25000 ng·h/mL; in series [2] (setting [19]) it was 6780 ng·h/mL; in series [2] (setting [20]) it was 20400 ng·h/mL. Also, the AUC(0-inf) in series [2] (plasma, rat Male, 20 mg/kg, Day 1, mean (SE), N 4, footnote a: AUC0-∞) was 8510 ng·h/mL. The same molecule came in with a systemic availability in series [2] (rat) of 20%. Further, the AUC/Dose in series [2] (rat Female, 30 mg/kg, Day 10, mean (SE), N 3) is listed as 832 (145); in series [2] (rat Male, 10 mg/kg, Day 10, mean (SE), N 3), 678 (64); in series [2] (rat Male, 20 mg/kg, Day 1, mean (SE), N 4) it was 426 (81); in series [2] (rat Male, 30 mg/kg, Day 10, mean (SE), N 3), 680 (78); in series [2] (rat Male, 100 mg/kg, Day 10, mean (SE), N 3) it was 583 (125). In addition, in series [3], the “emectic receptor interaction / diarrhea” value was “giving rise to diarrhea in mammals”. Further, the “pH of solution in 2% Tween 80 in water” value in [4] is “(pH 6.4)”. In addition, the “pH of solution in Water” value in series [4] is given as “(pH 8.2)”.

As for Tosylate, the pH in series [1] (salt screen) came to 4.72. Also, the solubility in [1] (salt screen, Table 1, water) amounted to 6.89 mg/g.

The molecule `CCOc1cc2ncc(C#N)c(Nc3ccc(OCc4ccccn4)c(Cl)c3)c2cc1NC(=O)/C=C/CN(C)C.O.O=C(O)/C=C\C(=O)O` [Form II] came in with a time remained stable in series [7] of 6 months. In addition, in series [8], the “relative humidity at which water is lost” value is given as at most 20 % RH. Besides, the “form stability on exposure to ambient humidity” value in series [9] is on record as “relatively stable”.

These data come from patent US8394959B2, “Maleate salts of (E)-N-{4-[3-chloro-4-(2-pyridinylmethoxy)anilino]-3-cyano-7-ethoxy-6-quinolinyl)-4-(dimethylamino)-2-buteramide and crystalline forms thereof” (Wyeth LLC, priority 2007, dated 2013).
